In patent publication US20240368174A1, “Antiviral Heterocyclic Compounds” (Enanta Pharmaceuticals, Inc., priority 2023, published 2024):

System: HMPV clinical isolate A2 strain TN 94-49
Assay: HMPV antiviral assay, Method 1 (LLC-MK2 cells, ATP-Lite)
Assay type: cell-based
Conditions: human metapneumovirus, hMPV A2 TN/94-49, LLC-MK2 cells
Description: In vitro HMPV antiviral activity was evaluated using the clinical isolate A2 strain TN 94-49 (obtained from Dr. John Williams, Vanderbilt University, Tennessee) and LLC-MK2 cells (ATCC #CCL-7), an immortalized kidney epithelial cell line from Macaca mulatta. Compounds were resuspended in dimethyl sulfoxide (DMSO) at 10 mM, serially diluted and added to a 384-well source plate. Subsequently, the compounds were diluted and transferred onto 384-well assay plates using the Echo-650 automated liquid handling system (Beckman Coulter, Indiana). The test compounds were assessed in duplicate at a top concentration of 2 μM followed by 2.5-fold serial dilutions to give a total of 10 concentration points. DMSO control wells were also included on the assay plates and were either infected or not, acting as positive and negative controls. A2 TN 94-49 virus infections were performed in-suspension with LLC-MK2 cells. The cells were washed twice with PBS and removed from the cell-culture flask with 0.25% trypsin-EDTA (Thermo Fisher Scientific, MA). The trypsin-EDTA was inactivated by resuspending in 2% fetal bovine serum (FBS) and OptiMEM (ThermoFisher Scientific, MA) containing 1% penicillin-streptomycin. Cells were pelleted by centrifuging for 5 minutes at 800 rpm, the supernatant was removed, and cells were re-suspended and washed in PBS plus 100 μg/mL CaCl2). This step was performed twice. Cells were then re-suspended in serum-free (SF)-OptiMEM containing 4 μg/mL TPCK-Trypsin (Sigma Aldrich, MO), 1% penicillin-streptomycin (ThermoFisher Scientific, MA) and 100 μg/mL CaCl2). Cells were counted and seeded at a density of 5,000 cells/well, 12.5 μL/well. Virus infections were done at a multiplicity of infection (MOI) of 0.005 with 12.5 μL added per well. Virus infections were performed in infection media which contained SF-OptiMEM, 100 μg/mL CaCl2) and 1% penicillin-streptomycin. HMPV viral stocks are suspended in infection media+5% glycerol, thus an equal volume of infection media+5% glycerol was added to uninfected wells to equalize the final % glycerol across all wells of the assay plate. The final concentration of TPCK-trypsin was 2 μg/mL. The assay plates were incubated at 37° C., 5% CO2 for 7 days. After 7 days incubation, 12.5 μL of ATP-Lite (PerkinElmer, MA) was added to each well and the raw luminescence values were determined using the Envision 2104 (Perkin Elmer, MA). The average of the raw luminescence values for the cells and virus only positive control wells was subtracted from all conditions tested and the percent cell health was determined by dividing these values by the average of the cells only negative control wells. EC50 values were then calculated by non-linear regression using a four-parameter curve logistic equation. The curve fit model employed was XLFit Dose Response One Site Model 200: y=(A+(B/(1+((x/C)^D)))), where A is the minimum y value, B is the maximum y value, C is the log EC50 value, and D is the slope factor.

Molecule `COc1cc(C(=O)NC[C@@](O)(c2ccccc2)c2cc3c(c(-c4cc(C(F)(F)F)ccc4F)n2)OC[C@]3(C)C(N)=O)cc2cn(C(F)F)nc12` [Example 148] has an EC50 of less than 500 nM.

`COc1cc(C(=O)NC[C@@](O)(c2ccccc2)c2cc3c(c(-c4cc(C(F)(F)F)ccc4F)n2)OC[C@]3(C)C(N)=O)cc2cc(C3CC3)nn12` [Example 149] showed an EC50 of less than 500 nM.

For `[2H]C([2H])([2H])c1nc2c(OC)cc(C(=O)NC[C@@](O)(c3ccccc3)c3cc4c(c(-c5cc(Cl)c(F)cc5F)n3)OC[C@]4(C)C(N)=O)cc2s1` [Example 155], the EC50 was less than 500 nM.

Molecule `COc1cc(C(=O)NC[C@@](O)(c2ccccc2)c2cc3c(c(-c4cc(Cl)c(F)cc4F)n2)OC[C@]3(C)C(N)=O)cc2cn(C(F)F)nc12` [Example 156] has an EC50 of less than 500 nM.

`COc1cc(C(=O)NC[C@@](O)(c2ccccc2)c2cc3c(c(-c4cc(Cl)c(F)cc4F)n2)OC[C@]3(C)C(N)=O)cc2cc(Cl)c(C)nc12` [Example 159] showed an EC50 of less than 500 nM.

With `[2H]C([2H])([2H])c1nc2c(OC)cc(C(=O)NC[C@@](O)(c3cccc(OC)c3)c3cc4c(c(-c5cc(Cl)c(F)cc5F)n3)OC[C@]4(C)C(N)=O)cc2s1` [Example 163] the EC50 was less than 500 nM.

In the case of `COc1cccc([C@](O)(CNC(=O)c2cc(OC)c3nc(C)c(Cl)cc3c2)c2cc3c(c(-c4cc(Cl)c(F)cc4F)n2)OC[C@]3(C)C(N)=O)c1` [Example 164], the EC50 is reported as less than 500 nM.

`COc1ccc([C@](O)(CNC(=O)c2cc(OC)c3nn(C(F)F)cc3c2)c2cc3c(c(-c4cc(Cl)c(F)cc4F)n2)OC[C@]3(C)C(N)=O)cc1` [Example 167] was tested, and the EC50 was less than 500 nM.

`[2H]C([2H])([2H])c1nc2c(OC)cc(C(=O)NC[C@@](O)(c3ccc(OC)cc3)c3cc4c(c(-c5cc(Cl)c(F)cc5F)n3)OC[C@]4(C)C(N)=O)cc2s1` [Example 168] showed an EC50 of less than 500 nM.

Work on `[2H]c1c([2H])c([2H])c([C@](O)(CNC(=O)c2cc(OC)c3nn(C4CC4)cc3c2)c2cc3c(c(-c4cc(Cl)c(F)cc4F)n2)OC[C@]3(C)C(N)=O)c([2H])c1[2H]` [Example 169] yielded an EC50 of less than 500 nM.

Work on `COc1cc(C(=O)NC[C@@](O)(c2ccsc2)c2cc3c(c(-c4cc(Cl)c(F)cc4F)n2)OC[C@]3(C)C(N)=O)cc2cn(C3CC3)nc12` [Example 173] yielded an EC50 of less than 500 nM.

`COc1cc(C(=O)NC[C@@](O)(c2ccsc2)c2cc3c(c(-c4cc(Cl)c(F)cc4F)n2)OC[C@]3(C)C(N)=O)cc2cn(C(F)F)nc12` [Example 174] was tested, and the EC50 was less than 500 nM.

`COc1cc(C(=O)NC[C@@](O)(c2ccsc2)c2cc3c(c(-c4cc(Cl)c(F)cc4F)n2)OC[C@]3(C)C(N)=O)cc2cn(C3(F)CC3)nc12` [Example 175] gave an EC50 of less than 500 nM.

Work on `[2H]C([2H])([2H])c1nc2c(OC)cc(C(=O)NC[C@@](O)(c3ccsc3)c3cc4c(c(-c5cc(Cl)c(F)cc5F)n3)OC[C@]4(C)C(N)=O)cc2s1` [Example 176] yielded an EC50 of less than 500 nM.

In the case of `COc1cc(C(=O)NC[C@@](O)(c2ccsc2)c2cc3c(c(-c4cc(F)c(F)cc4F)n2)OC[C@]3(C)C(N)=O)cc2cn(C3CC3)nc12` [Example 177], the EC50 is reported as less than 500 nM.

`COc1cc(C(=O)NC[C@@](O)(c2ccsc2)c2cc3c(c(-c4cc(F)c(F)cc4F)n2)OC[C@]3(C)C(N)=O)cc2cn(C(F)F)nc12` [Example 178] showed an EC50 of less than 500 nM.

With `COc1cc(C(=O)NC[C@](O)(c2cc3c(c(-c4cc(Cl)c(F)cc4F)n2)OC[C@]3(C)C(N)=O)c2cnn[nH]2)cc2cn(C3CC3)nc12` [Example 180] the EC50 was greater than 500 nM.

With `COc1cc(C(=O)NC[C@@](O)(c2cc3c(c(-c4cc(Cl)c(F)cc4F)n2)OC[C@]3(C)C(N)=O)c2cnn[nH]2)cc2cn(C3CC3)nc12` [Example 181] the EC50 was greater than 500 nM.

Work on `COc1cc(C(=O)NC[C@](O)(c2cc3c(c(-c4cc(F)c(F)cc4F)n2)OC[C@]3(C)C(N)=O)C2(O)CC2)cc2cn(C3CC3)nc12` [Example 215] yielded an EC50 greater than 500 nM.

Work on `[2H]c1nc2c(OC(F)F)cc(C(=O)NC[C@@](O)(c3ccccc3)c3cc4c(c(-c5cc(Cl)c(F)cc5F)n3)OC[C@]4(C)C(N)=O)cc2cc1C([2H])([2H])[2H]` [Example 217] yielded an EC50 of less than 500 nM.

Work on `COc1cc(C(=O)NC[C@@](O)(c2ccccc2)c2cc3c(c(-c4ccc5c(c4Cl)OC(F)(F)O5)n2)OC[C@]3(C)C(N)=O)cc2cn(C3CC3)nc12` [Example 251] yielded an EC50 of less than 500 nM.

Work on `C[C@]1(C(N)=O)COc2c1cc([C@@](O)(CNC(=O)c1cc(OC3CC3)c3nn(C4CC4)cc3c1)c1ccccc1)nc2-c1ccc2c(c1Cl)OC(F)(F)O2` [Example 252] yielded an EC50 of less than 500 nM.

`COc1cc(C(=O)NC[C@@](O)(c2ccccc2)c2cc3c(c(-c4ccc5c(c4Cl)OC(F)(F)O5)n2)OC[C@]3(C)C(N)=O)cc2cn(C(F)F)nc12` [Example 253] showed an EC50 of less than 500 nM.

`COc1cc(C(=O)NC[C@@](O)(c2ccccc2)c2cc3c(c(-c4ccc5c(c4Cl)OC(F)(F)O5)n2)OC[C@]3(C)C(N)=O)cc2cc(C3CC3)nn12` [Example 254] was tested, and the EC50 was less than 500 nM.

`COc1cc(C(=O)NC[C@@](O)(c2ccccc2)c2cc3c(c(-c4ccc5c(c4Cl)OC(F)(F)O5)n2)OC[C@]3(C)C(N)=O)cc2cn(C3(F)CC3)nc12` [Example 255] was tested, and the EC50 was less than 500 nM.

For `C[C@]1(C(N)=O)COc2c1cc([C@@](O)(CNC(=O)c1ccc3nc(N)sc3c1)c1ccccc1)nc2-c1ccc2c(c1Cl)OC(F)(F)O2` [Example 256], the EC50 was less than 500 nM.

`COc1cc(C(=O)NC[C@@](O)(c2ccccc2)c2cc3c(c(-c4ccc(F)c(Cl)c4Cl)n2)OC[C@]3(C)C(N)=O)cc2cn(C3CC3)nc12` [Example 257] gave an EC50 of less than 500 nM.

`COc1cc(C(=O)NC[C@@](O)(c2ccccc2)c2cc3c(c(-c4cccc(Cl)c4Cl)n2)OC[C@]3(C)C(N)=O)cc2cn(C(F)F)nc12` [Example 261] gave an EC50 of less than 500 nM.

With `Cc1nc2ccc(C(=O)NC[C@@](O)(c3ccccc3)c3cc4c(c(-c5ccc(F)c(Cl)c5Cl)n3)OC[C@]4(C)C(N)=O)cc2o1` [Example 267] the EC50 was less than 500 nM.

Molecule `[2H]C([2H])([2H])c1nc2c(OC)cc(C(=O)NC[C@@](O)(c3cccc(F)c3)c3cc4c(c(-c5ccc(F)c(Cl)c5Cl)n3)OC[C@]4(C)C(N)=O)cc2s1` [Example 272] has an EC50 of less than 500 nM.

`[2H]C([2H])([2H])c1nc2c(OC)cc(C(=O)NC[C@@](O)(c3ccccc3)c3cc4c(c(-c5ccc(F)c(Cl)c5Cl)n3)OC[C@]4(C)C(N)=O)cc2s1` [Example 273] was tested, and the EC50 was less than 500 nM.

With `COc1cc(C(=O)NC[C@@](O)(c2cccc(F)c2)c2cc3c(c(-c4ccc5c(c4Cl)OC(F)(F)O5)n2)OC[C@]3(C)C(N)=O)cc2cn(C3CC3)nc12` [Example 274] the EC50 was less than 500 nM.

With `COc1cc(C(=O)NC[C@@](O)(c2cccc(F)c2)c2cc3c(c(-c4ccc(F)c(Cl)c4Cl)n2)OC[C@]3(C)C(N)=O)cc2oc(C)nc12` [Example 279] the EC50 was less than 500 nM.

`Cc1nc2ccc(C(=O)NC[C@@](O)(c3cccc(F)c3)c3cc4c(c(-c5ccc6c(c5Cl)OC(F)(F)O6)n3)OC[C@]4(C)C(N)=O)cc2o1` [Example 284] was tested, and the EC50 was less than 500 nM.

For `COc1cc(C(=O)NC[C@@](O)(c2ccccc2)c2cc3c(c(-c4cc(C(F)F)c(F)cc4F)n2)OC[C@]3(C)C(N)=O)cc2cn(C3CC3)nc12` [Example 288], the EC50 was less than 500 nM.

Work on `COc1cc(C(=O)NC[C@@](O)(c2cc3c(c(-c4cc(Cl)c(F)cc4F)n2)OC[C@]3(C)C(N)=O)c2cc(C)cs2)cc2cn(C3CC3)nc12` [Example 466] yielded an EC50 greater than 500 nM.

`COc1cc(C(=O)NC[C@](O)(c2cc3c(c(-c4cc(Cl)c(F)cc4F)n2)OC[C@]3(C)C(N)=O)c2cc(C)cs2)cc2cn(C3CC3)nc12` [Example 467] showed an EC50 of less than 500 nM.
